Test results from publication PMC11124870, “Effect of Antioxidants in Medicinal Products on Intestinal Drug Transporters” (Pharmaceutics, 2024).
Entries after “also recorded” stand apart in the source; their conditions may differ.

What was measured:
P-gp = molecular target: T1, P-gp (Homo sapiens, UniProt P08183); assay: Vesicular transport assay, 3H-NMQ uptake in P-gp membrane vesicles; assay type: biochemical
T1 construct: purchased ThermoFisher Scientific GM0015; host or cells: Sf9 membrane vesicles
Procedure: The vesicular transport assay was performed using Spodoptera frugiperda 9 (Sf9) membrane vesicles overexpressing human P-gp or BCRP, as reported previously with minor modifications. In brief, Isoplate 96-well flat-bottom white plates were preincubated with HBSS containing 0.5 mg/mL BSA on an orbital shaker in a 37 °C incubator at 90 rpm for 60 min followed by washing with HBSS. The assay mixture (75 µL/well) contained a probe substrate and either vehicle control, a known inhibitor of P-gp or BCRP, or an antioxidant, in vesicle uptake buffer (50 mM MOPS-Tris, pH 7.0 + 70 mM KCl + 7.5 mM MgCl2) prewarmed to 37 °C. After addition of the assay mixture, 5 μL/well (5 μg/μL stock concentration of the vesicles) of vesicles overexpressing human P-gp or BCRP was added. Uptake assays were initiated by adding 20 μL of either 25 mM adenosine triphosphate (ATP) or 25 mM adenosine monophosphate (AMP) to a final concentration of 5 mM. Plates were incubated at 37 °C for 20 min with orbital shaking (90 rpm). After 20 min, the uptake was quenched by adding 150 μL of ice-cold wash buffer (40 mM MOPS-Tris, pH 7.0 + 70 mM KCl) to each well, and the mixture was transferred to a 96-well filtration plate. Vacuum was applied, and the vesicles were washed three times with wash buffer. Vesicles were then lysed with 100 µL of MicroScint-20.

P-gp (human MDR1) = P-gp (human MDR1) (Homo sapiens, UniProt P08183); assay: Transwell transport assay, basal-to-apical digoxin flux in MDCK-hMDR1-cMDR1-KO cells; details: 3H-digoxin 2.5 µM, 4 h
Procedure: (§1) The transport assay was performed using MDCK-hMDR1-cMDR1-KO, MDCK-cMDR1-KO, and MDCK-hBCRP-cMDR1-KO as reported previously with minor modifications. In brief, 133,000 cells were seeded onto a Transwell membrane insert, a semipermeable polyethylene terephthalate membrane. During the differentiation process, the medium volume in the apical chamber was kept at 300 μL, while the basal chamber contained 1000 μL. The cells were allowed to differentiate for 7–9 days at 37 °C in a humidified incubator with 5% CO2. Before starting transporter assays, the integrity of the cell monolayer was checked using lucifer yellow permeability assays. […] From the basal chamber, 100 μL samples were collected for fluorescence measurements using GloMax® Explorer with a 475 nm excitation filter and a 500–550 nm emission filter to calculate the percent permeability per well.
(§2) To assess the flux of digoxin or prazosin from the basal to apical side, the cells were washed twice with HBSS. […] All apical and basal samples were mixed with scintillation fluid (EcoLite(+)™ liquid scintillation cocktail), and their radioactivity was measured using liquid scintillation counting (Beckman LS6500). […] For data analysis, the disintegration per minute counts of digoxin or prazosin from the apical samples were converted to picomoles using radioactivity measured in the substrate solution.

BCRP = molecular target: T2, BCRP (Homo sapiens, UniProt Q9UNQ0); assay: Transwell transport assay, basal-to-apical prazosin flux in MDCK-hBCRP-cMDR1-KO cells; details: BHA 178 µM on both sides; 3H-prazosin 1 µM; 4 h
T2 sequence (Q9UNQ0 1-655): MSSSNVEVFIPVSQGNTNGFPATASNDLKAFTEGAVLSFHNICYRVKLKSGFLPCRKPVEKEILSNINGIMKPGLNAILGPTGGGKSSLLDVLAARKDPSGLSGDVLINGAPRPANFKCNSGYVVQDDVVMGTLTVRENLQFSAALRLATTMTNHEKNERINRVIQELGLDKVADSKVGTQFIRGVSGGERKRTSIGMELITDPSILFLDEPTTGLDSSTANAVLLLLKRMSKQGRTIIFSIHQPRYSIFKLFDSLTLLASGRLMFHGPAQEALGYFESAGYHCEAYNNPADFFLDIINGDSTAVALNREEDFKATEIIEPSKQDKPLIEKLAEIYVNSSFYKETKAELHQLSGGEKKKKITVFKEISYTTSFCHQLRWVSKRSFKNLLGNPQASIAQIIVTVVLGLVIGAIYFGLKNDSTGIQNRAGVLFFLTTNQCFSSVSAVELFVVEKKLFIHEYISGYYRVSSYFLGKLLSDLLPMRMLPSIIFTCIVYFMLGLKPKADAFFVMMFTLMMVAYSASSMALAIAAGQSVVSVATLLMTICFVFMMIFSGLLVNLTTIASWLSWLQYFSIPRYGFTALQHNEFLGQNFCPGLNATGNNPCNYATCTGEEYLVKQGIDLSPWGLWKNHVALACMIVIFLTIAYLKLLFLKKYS
Procedure: as §1, §2

[1] = tested on: MDCK cell tight junctions; assay: Lucifer yellow permeability assay of MDCK monolayer integrity; assay type: cell-based; details: BHA 250 µM
Procedure: The transport assay was performed using MDCK-hMDR1-cMDR1-KO, MDCK-cMDR1-KO, and MDCK-hBCRP-cMDR1-KO as reported previously with minor modifications [14, 27]. In brief, 133,000 cells were seeded onto a Transwell membrane insert, a semipermeable polyethylene terephthalate membrane. During the differentiation process, the medium volume in the apical chamber was kept at 300 μL, while the basal chamber contained 1000 μL. The cells were allowed to differentiate for 7–9 days at 37 °C in a humidified incubator with 5% CO2. Before starting transporter assays, the integrity of the cell monolayer was checked using lucifer yellow permeability assays. Cells were washed twice with HBSS, lucifer yellow (0.1 mg/mL) in HBSS was added to the apical chamber, and the basal chamber was filled with fresh HBSS. The assembled plate was then incubated at 37 °C for 1 h. From the basal chamber, 100 μL samples were collected for fluorescence measurements using GloMax® Explorer with a 475 nm excitation filter and a 500–550 nm emission filter to calculate the percent permeability per well.
At the end of the transport assay, a lucifer yellow permeability assay was performed as described earlier.

[2] = Estimation of intestinal luminal concentration (Igut), dose/250 mL; details: estimated from maximum oral amount (AP 10 mg, BHA 8 mg) in 250 mL intestinal fluid
Procedure: Igut is intestinal luminal concentration estimated as dose/250 mL. The Igut concentration was estimated using the following equation: Igut=A÷MW×V×10^6 where Igut is the estimated intestinal luminal concentration (µM), A is the amount of antioxidant in an oral dosage (mg), MW is the molecular weight, and V is the volume of intestinal fluid, i.e., 250 mL.

T1 sequence (P08183 whole entry): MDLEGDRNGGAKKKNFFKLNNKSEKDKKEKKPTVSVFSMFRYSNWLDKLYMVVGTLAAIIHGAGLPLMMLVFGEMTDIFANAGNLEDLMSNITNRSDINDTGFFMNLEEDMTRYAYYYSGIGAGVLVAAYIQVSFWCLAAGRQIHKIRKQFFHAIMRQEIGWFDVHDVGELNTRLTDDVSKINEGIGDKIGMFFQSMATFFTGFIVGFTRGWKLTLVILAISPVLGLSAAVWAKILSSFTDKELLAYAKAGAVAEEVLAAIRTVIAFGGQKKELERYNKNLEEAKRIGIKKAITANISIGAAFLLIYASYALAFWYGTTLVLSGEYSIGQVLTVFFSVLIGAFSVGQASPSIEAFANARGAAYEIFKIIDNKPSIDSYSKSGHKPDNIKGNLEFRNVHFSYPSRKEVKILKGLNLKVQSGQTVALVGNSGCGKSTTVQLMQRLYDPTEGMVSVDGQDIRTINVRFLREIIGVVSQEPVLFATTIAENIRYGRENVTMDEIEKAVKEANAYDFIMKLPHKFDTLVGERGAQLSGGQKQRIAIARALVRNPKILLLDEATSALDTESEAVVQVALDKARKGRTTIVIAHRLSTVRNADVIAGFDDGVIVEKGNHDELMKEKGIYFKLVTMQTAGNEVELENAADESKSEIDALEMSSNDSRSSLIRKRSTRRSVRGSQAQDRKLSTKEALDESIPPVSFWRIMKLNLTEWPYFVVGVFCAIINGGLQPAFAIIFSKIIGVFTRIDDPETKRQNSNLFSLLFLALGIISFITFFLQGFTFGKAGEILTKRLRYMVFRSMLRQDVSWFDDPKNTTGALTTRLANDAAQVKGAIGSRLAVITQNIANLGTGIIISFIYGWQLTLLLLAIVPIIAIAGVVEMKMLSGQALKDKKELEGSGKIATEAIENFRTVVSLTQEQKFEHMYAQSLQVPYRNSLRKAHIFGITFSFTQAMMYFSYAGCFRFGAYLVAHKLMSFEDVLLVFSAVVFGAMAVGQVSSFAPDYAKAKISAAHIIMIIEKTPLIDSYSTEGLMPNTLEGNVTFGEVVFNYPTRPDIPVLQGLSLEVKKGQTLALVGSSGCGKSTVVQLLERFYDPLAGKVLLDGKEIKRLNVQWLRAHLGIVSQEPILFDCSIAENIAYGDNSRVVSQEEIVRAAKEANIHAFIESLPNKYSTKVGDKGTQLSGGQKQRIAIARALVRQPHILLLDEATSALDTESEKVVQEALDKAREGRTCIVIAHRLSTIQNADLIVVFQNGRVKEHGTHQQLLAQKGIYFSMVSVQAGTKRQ
P-gp (human MDR1), sequence (P08183 whole entry): as above

COc1ccc(O)cc1C(C)(C)C [Butylated hydroxyanisole (BHA), 2-tert-Butyl-4-hydroxyanisole]
Inhibition of P-gp (P-gp; 200 µM, 3H-NMQ): at least 50% | % Uptake of 3H-NMQ P-gp (P-gp; antioxidant 200 µM, uptake with DMSO set as 100%, mean ± SD, three replicates, membrane vesicles): 42.1 ± 5.7% | IC50 (P-gp; substrate 3H-NMQ, mean ± SD of three independent experiments): 182 ± 49 µM | Inhibition of digoxin transport (basal to apical) (P-gp (human MDR1); BHA 62.5 µM on both sides): Neither the estimated maximal intestinal concentration of 178 µM nor a lower concentration (62.5 µM) inhibited digoxin transport | Inhibition of digoxin transport (basal to apical) (P-gp (human MDR1); BHA 178 µM on both sides): Neither the estimated maximal intestinal concentration of 178 µM nor a lower concentration (62.5 µM) inhibited digoxin transport; also recorded: did not impede digoxin transport | Inhibition of prazosin efflux (basal to apical) (BCRP): did not inhibit prazosin efflux | Effect on MDCK cell tight junctions (lucifer yellow permeability) [1]: disrupted MDCK cell tight junctions | Max Intestinal Conc (µM) in 250 mL Fluid [2]: 178 µM
